Assay results: patent publication US7138361B2, “Herbicidal heterocycles” (E. I. du Pont de Nemours and Company, priority 2000, dated 2006)

How the values were obtained:
Assay in all cases: Test B postemergence
Type in all cases: in vivo
Details in all cases: 13 to 15 days
[1] = tested on: crabgrass (Digitaria sanguinalis)
Method in brief: (§1)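 Pre: seeded pots sprayed, chemical in non-phytotoxic solvent/surfactant mix. Post: plants 2–18 cm, 1–4 leaf, same formulation. Greenhouse 13–15 d; visual % control vs untreated, 0–100 scale.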

[2] = tested on: lambsquarters (Chenopodium album)
Method in brief: as §1

[3] = tested on: cocklebur (Xanthium strumarium)
Method in brief: as §1

[4] = tested on: giant foxtail (Setaria faberii)
Method in brief: as §1

[5] = tested on: velvetleaf (Abutilon theophrasti)
Method in brief: as §1

[6] = tested on: morning glory (Ipomoea hederacea)
Method in brief: as §1

[7] = tested on: pigweed (Amaranthus retroflexus)
Method in brief: as §1

[8] = tested on: Surinam grass (Brachiaria decumbens)
Method in brief: as §1

[9] = tested on: blackgrass (Alopecurus myosuroides)
Method in brief: as §1

[10] = Rate 125 g/ha, scale 0 (no effect) to 100 (complete control)
[11] = Rate 500 g/ha, scale 0 to 100, 0 is no effect, 100 is complete control

| SMILES | Plant response rating, Crabgrass [1, 10] | Plant response rating, Crabgrass [1, 11] | Plant response rating, Lambsquarters [2, 10] | Plant response rating, Lambsquarters [2, 11] | Plant response rating, Cocklebur [3, 10] | Plant response rating, Cocklebur [3, 11] | Plant response rating, Foxtail, Giant [4, 10] | Plant response rating, Foxtail, Giant [4, 11] | Plant response rating, Velvetleaf [5, 10] | Plant response rating, Velvetleaf [5, 11] | Plant response rating, Morningglory [6, 10] | Plant response rating, Morningglory [6, 11] | Plant response rating, Pigweed [7, 10] | Plant response rating, Pigweed [7, 11] | Plant response rating, Surinam grass [8, 10] | Plant response rating, Surinam grass [8, 11] | Plant response rating, Blackgrass [9, 10] | Plant response rating, Blackgrass [9, 11] |
| --- | --- | --- | --- | --- | --- | --- | --- | --- | --- | --- | --- | --- | --- | --- | --- | --- | --- | --- |
| COc1cc(OC)cc(N2CCC(n3ccc(C(C)(C)C)n3)C2=O)c1 (stereo not drawn) [Compound 71] | 0 | 30 | 0 | 50 | 0 | 20 | 0 | 20 | 0 | 20 | 20 | 20 | 30 | 60 | 0 | 30 | 0 | 0 |
| CCC(C)c1ccn(C2CCN(c3cccc(OC(C)C)c3)C2=O)n1 (stereo not drawn) [Compound 83] | 0 | 0 | 10 | 60 | 10 | 10 | 0 | 0 | 0 | 0 | 0 | 10 | 0 | 10 | 0 | 0 | 0 | 0 |
| CC1(c2ccn(C3OCN(c4cccc(C(F)(F)F)c4)C3=O)n2)CC1 (stereo not drawn) [Compound 62] | 0 | 0 | 0 | 60 | 0 | 0 | 0 | 0 | 0 | 0 | 0 | 0 | 0 | 40 | 0 | 0 | 0 | 0 |
| O=C1C(n2ccc(C3CCC3)n2)OCN1c1cccc(C(F)(F)F)c1 (stereo not drawn) [Compound 39] | 0 | 70 | 70 | 90 | 0 | 0 | 0 | 0 | 0 | 0 | 0 | 0 | 60 | 90 | 0 | 0 | 0 | 0 |
| CC(C)(C)c1ccn(C2CCN(c3cccc(OC(F)F)c3)C2=O)n1 (stereo not drawn) [Compound 76] | 0 | 40 | 0 | 40 | 0 | 20 | 0 | 30 | 0 | 0 | 0 | 20 | 30 | 80 | 0 | 10 | 0 | 0 |
| CCC(C)c1ccn(C2OCN(c3cccc(OC(F)(F)F)c3)C2=O)n1 (stereo not drawn) [Compound 67] | 50 | 100 | 90 | 100 | 0 | 60 | 20 | 40 | 0 | 20 | 0 | 0 | 0 | 0 | 30 | 30 | 0 | 0 |
| CC1(c2ccn(C3OCN(c4cccc(OC(F)(F)F)c4)C3=O)n2)CC1 (stereo not drawn) [Compound 69] | 0 | 30 | 80 | 80 | 0 | 20 | 0 | 0 | 0 | 0 | 0 | 0 | 0 | 0 | 0 | 0 | 70 | 70 |
| CC1(c2ccn(C3SCN(c4cccc(C(F)(F)F)c4)C3=O)n2)CC1 (stereo not drawn) [Compound 64] | 0 | 50 | 70 | 80 | 70 | 70 | 0 | 30 | 0 | 30 | 0 | 60 | 40 | 70 | 0 | 40 | 0 | 0 |
| CCOC(=O)c1cccc(N2CCC(n3ccc(C(C)(C)C)n3)C2=O)c1 (stereo not drawn) [Compound 72] | 0 | 30 | 0 | 0 | 80 | 90 | 0 | 50 | 30 | 60 | 20 | 50 | 20 | 60 | 0 | 0 | 0 | 0 |
| CC1(c2ccn(C3SCN(c4cccc(OC(F)(F)F)c4)C3=O)n2)CC1 (stereo not drawn) [Compound 63] | 0 | 60 | 60 | 80 | 0 | 50 | 0 | 50 | 0 | 50 | 0 | 40 | 50 | 70 | 0 | 0 | 0 | 0 |
| CC(C)(C)c1ccn(C2CCN(c3ccc(F)c(Br)c3)C2=O)n1 (stereo not drawn) [Compound 75] | 0 | 0 | 70 | 80 | 0 | 0 | 0 | 0 | 0 | 50 | 20 | 60 | 50 | 90 | 0 | 0 | 0 | 0 |
| Cc1ccc(N2CCC(n3ccc(C(C)(C)C)n3)C2=O)cc1OC(F)F (stereo not drawn) [Compound 79] | 0 | 0 | 0 | 10 | 30 | 30 | 0 | 0 | 0 | 0 | 30 | 40 | 70 | 70 | 0 | 0 | 0 | 0 |
